According to ChEMBL document CHEMBL2440076, “New triarylpyrazoles as broad-spectrum anticancer agents: design, synthesis, and biological evaluation” (Eur J Med Chem, 2013):

Legend:
Type in all cases: functional
[1] = test system: SK-MEL-2; assay: Growth inhibition of human SK-MEL-2 cells assessed as cell growth at 10 uM after 48 hrs by sulforhodamine B assay; settings: SK-MEL-2, 48 h, read-out: Activity
[2] = test system: HCT-15; assay: Growth inhibition of human HCT15 cells assessed as cell growth at 10 uM after 48 hrs by sulforhodamine B assay; settings: HCT-15, 48 h, read-out: Activity
[3] = test system: M14; assay: Growth inhibition of human M14 cells assessed as cell growth at 10 uM after 48 hrs by sulforhodamine B assay; settings: M14, 48 h, read-out: Activity
[4] = test system: SK-MEL-28; assay: Growth inhibition of human SK-MEL-28 cells assessed as cell growth at 10 uM after 48 hrs by sulforhodamine B assay; settings: SK-MEL-28, 48 h, read-out: Activity
[5] = test system: TK-10; assay: Growth inhibition of human TK10 cells assessed as cell growth at 10 uM after 48 hrs by sulforhodamine B assay; settings: TK-10, 48 h, read-out: Activity
[6] = test system: OVCAR-4; assay: Growth inhibition of human OVCAR4 cells assessed as cell growth at 10 uM after 48 hrs by sulforhodamine B assay; settings: OVCAR-4, 48 h, read-out: Activity
[7] = test system: SW-620; assay: Growth inhibition of human SW620 cells assessed as cell growth at 10 uM after 48 hrs by sulforhodamine B assay; settings: SW-620, 48 h, read-out: Activity
[8] = test system: ACHN; assay: Growth inhibition of human ACHN cells assessed as cell growth at 10 uM after 48 hrs by sulforhodamine B assay; settings: read-out: Activity
[9] = Growth inhibition of human Hs 578T cells assessed as cell growth at 10 uM after 48 hrs by sulforhodamine B assay; settings: read-out: Activity
[10] = test system: DU-145; assay: Growth inhibition of human DU145 cells assessed as cell growth at 10 uM after 48 hrs by sulforhodamine B assay; settings: DU-145, 48 h, read-out: Activity
[11] = test system: SNB-19; assay: Growth inhibition of human SNB19 cells assessed as cell growth at 10 uM after 48 hrs by sulforhodamine B assay; settings: SNB-19, 48 h, read-out: Activity
[12] = test system: KM12; assay: Growth inhibition of human KM12 cells assessed as cell growth at 10 uM after 48 hrs by sulforhodamine B assay; settings: KM12, 48 h, read-out: Activity
[13] = Growth inhibition of human HCC2998 cells assessed as cell growth at 10 uM after 48 hrs by sulforhodamine B assay; settings: HCC 2998, 48 h, read-out: Activity
[14] = test system: 786-0; assay: Growth inhibition of human 786-0 cells assessed as cell growth at 10 uM after 48 hrs by sulforhodamine B assay; settings: 786-0, 48 h, read-out: Activity
[15] = test system: OVCAR-3; assay: Growth inhibition of human OVCAR3 cells assessed as cell growth at 10 uM after 48 hrs by sulforhodamine B assay; settings: OVCAR-3, 48 h, read-out: Activity
[16] = test system: A549; assay: Growth inhibition of human A549/ATCC cells assessed as cell growth at 10 uM after 48 hrs by sulforhodamine B assay; settings: A549, 48 h, read-out: Activity
[17] = test system: HT-29; assay: Growth inhibition of human HT-29 cells assessed as cell growth at 10 uM after 48 hrs by sulforhodamine B assay; settings: HT-29, 48 h, read-out: Activity

Structure (SMILES)	growth at 10 µM [1] [%]	growth at 10 µM [2] [%]	growth at 10 µM [3] [%]	growth at 10 µM [4] [%]	growth at 10 µM [5] [%]	growth at 10 µM [6] [%]	growth at 10 µM [7] [%]	growth at 10 µM [8] [%]	growth at 10 µM [9] [%]	growth at 10 µM [10] [%]	growth at 10 µM [11] [%]	growth at 10 µM [12] [%]	growth at 10 µM [13] [%]	growth at 10 µM [14] [%]	growth at 10 µM [15] [%]	growth at 10 µM [16] [%]	growth at 10 µM [17] [%]
O=C(Nc1cccc(-n2cc(-c3ccncc3)c(-c3ccc(Cl)c(O)c3)n2)c1)c1ccccc1	67.9	58.2	54.9	48.1	109	40.7	76.9	53.2	48.4	56.9	99.7	70.1	76.8	76.1	82.1	52.6	53.5
Cc1cc(C(=O)Nc2cccc(-n3cc(-c4ccncc4)c(-c4ccc(Cl)c(O)c4)n3)c2)ccc1Br	106	97.4	89.5	93.5	113	108	125	91.8	108	103	115	97.3	–	106	104	95.3	107
O=C(Nc1cccc(-n2cc(-c3ccncc3)c(-c3ccc(Cl)c(O)c3)n2)c1)c1ccc(Cl)c(C(F)(F)F)c1	93.7	92.9	82.5	94.1	119	111	112	86.6	91.9	95	119	88.4	123	108	95.8	88.8	105
